We go through eleven molecules from ChEMBL document CHEMBL1133829, “Design and synthesis of a novel class of histone deacetylase inhibitors” (Bioorg Med Chem Lett, 2001).

pEC50, pIC50: −log10 of the molar value.

The subject of one experiment is HCT-116. Description: In vitro antiproliferative activity against human colon cancer HCT 116 cells determined by […] assay. The format is functional, cell-based.
Experiment [1] deals with T1, Histone deacetylase 1 (Homo sapiens, UniProt Q13547). The experiment can be described thus: In vitro inhibition of partially purified recombinant human Histone deacetylase 1.
T1 sequence (Q13547 whole entry): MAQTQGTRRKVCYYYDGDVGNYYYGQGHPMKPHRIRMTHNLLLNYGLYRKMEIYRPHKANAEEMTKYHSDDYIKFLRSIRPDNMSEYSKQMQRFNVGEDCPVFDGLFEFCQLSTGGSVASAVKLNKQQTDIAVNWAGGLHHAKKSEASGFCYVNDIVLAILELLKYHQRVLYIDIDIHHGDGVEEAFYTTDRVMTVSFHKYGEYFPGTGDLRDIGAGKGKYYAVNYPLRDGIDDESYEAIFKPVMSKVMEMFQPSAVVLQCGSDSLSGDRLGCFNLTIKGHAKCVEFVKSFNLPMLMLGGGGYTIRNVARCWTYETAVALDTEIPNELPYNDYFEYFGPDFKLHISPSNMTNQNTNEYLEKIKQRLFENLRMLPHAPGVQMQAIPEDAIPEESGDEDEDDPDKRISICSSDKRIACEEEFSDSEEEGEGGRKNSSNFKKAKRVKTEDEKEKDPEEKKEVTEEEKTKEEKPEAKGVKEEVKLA
For experiment [2], the target named is T1, Histone deacetylase 1. Description: Concentration of compound required for acetylation of histone-4 in human T24 cancer cells. The format is functional, cell-based, Cancer cell lines.
In experiment [3] the test system is Mus musculus. Description: In vivo inhibition of non small cell lung carcinoma A549 tumor in nude mice administered with a daily dose of 20 mg/kg for 21 days. The format is functional. The conditions noted are these: A549, 504 h.
In experiment [4] the test system is Mus musculus. Description: In vivo inhibition of non small cell lung carcinoma A549 tumor in nude mice administered with a daily dose of 50 mg/kg for 21 days. Particulars: A549, 504 h. The format is functional.
Experiment [5] has as its system Mus musculus. Description: In vivo inhibition of non small cell lung carcinoma A549 tumor in nude mice administered with a daily dose of 40 mg/kg for 21 days. The format is functional. The conditions noted are these: A549, 504 h.

In general, pEC50 refers to −log10 of the EC50, conventionally taken in molar units. Lower therefore signals a large EC50. `O=C(/C=C/c1ccc(NS(=O)(=O)c2ccc(Cl)cc2)cc1)NO` gave a negative-log EC50 (pEC50) with HCT-116 of 6.00.

For orientation: pIC50 means the IC50 on a negative log10 scale, so that one unit is a factor of ten. `COc1ccc(S(=O)(=O)Nc2ccc(/C=C/C(=O)NO)cc2)cc1`: the pEC50 in the experiment with HCT-116 is 6.40; at Histone deacetylase 1 [2], 5.30. Also, the pIC50 on Histone deacetylase 1 [1] was 7.22.

One may read the inhibition in vivo as the drop in the measured response relative to a control, in per cent. Read a low inhibition in vivo as a weak effect. Consider `COc1ccc(S(=O)(=O)Nc2ccc(/C=C/C(=O)NO)cc2)cc1OC`, for which the negative logarithm of the EC50 (pEC50) in the experiment with HCT-116 was 6.70; on Histone deacetylase 1 [2], 6.00. For the same molecule, the inhibition in vivo at 20 mg/kg with Mus musculus [3] stood at 41%. In addition, the inhibition in vivo at 50 mg/kg with Mus musculus [4] was 57%. In the experiment with Mus musculus [5], 40 mg/kg produced 50% inhibition in vivo.

As for `CC(/C=C/C(=O)NO)=C\[C@@H](C)C(=O)c1ccc(N(C)C)cc1` [TRICHOSTATIN], the pEC50 in the experiment on HCT-116 was 6.00.

As to `O=C(CCc1ccc(NS(=O)(=O)c2ccccc2)cc1)NO`, the pEC50 was 5.70 in the experiment with HCT-116 and 5.30 at Histone deacetylase 1 [2].

As to `O=C(/C=C/c1ccc(NS(=O)(=O)c2ccc(Cl)c(Cl)c2)cc1)NO`, the pEC50 was 5.70 in the experiment on HCT-116 and 5.30 on Histone deacetylase 1 [2]. Besides, on Histone deacetylase 1 [1], the pIC50 was 7.00.

On to `Cc1ccc(S(=O)(=O)Nc2ccc(/C=C/C(=O)NO)cc2)cc1`, for which the pEC50 with HCT-116 was 6.15; on Histone deacetylase 1 [2] it was 5.00.

Turning to `CC(C)C(Cc1ccc(NS(=O)(=O)c2ccccc2)cc1)C(=O)NO` (stereo unspecified), the figures for the pEC50 in the experiment with HCT-116 and on Histone deacetylase 1 [2] were 4.52 and below 4.60, respectively. Also, the pIC50 at Histone deacetylase 1 [1] is below 4.60.

With `O=C(/C=C/c1ccc(NS(=O)(=O)c2ccccc2)cc1)NO`, in the experiment with HCT-116, the pEC50 is 5.52.

As for `O=C(/C=C/c1ccc(NS(=O)(=O)c2ccc(Cl)cc2Cl)cc1)NO`, the pEC50 in the experiment with HCT-116 was 5.40; at Histone deacetylase 1 [2], below 4.60.

For the molecule `O=C(Cc1ccc(NS(=O)(=O)c2ccccc2)cc1)NO`, the pEC50 in the experiment on HCT-116 is 4.66; at Histone deacetylase 1 [2], below 4.60. Moreover, the negative logarithm of the IC50 (pIC50) at Histone deacetylase 1 [1] was 6.00.
